Experimental data published in US20090317372A1, “SMALL MOLECULES FOR THE REDUCTION OF HIGH BLOOD GLUCOSE LEVEL” (priority 2008, published 2009).

B1: PALP: highly purified placental alkaline phosphatase (protein, UniProt P05187 23-506, looked up)
Alkaline phosphatase, …: IIPVEEENPDFWNREAAEALGAAKKLQPAQTAAKNLIIFLGDGMGVSTVTAARILKGQKKDKLGPEIPLAMDRFPYVALSKTYNVDKHVPDSGATATAYLCGVKGNFQTIGLSAAARFNQCNTTRGNEVISVMNRAKKAGKSVGVVTTTRVQHASPAGTYAHTVNRNWYSDADVPASARQEGCQDIATQLISNMDIDVILGGGRKYMFRMGTPDPEYPDDYSQGGTRLDGKNLVQEWLAKRQGARYVWNRTELMQASLDPSVTHLMGLFEPGDMKYEIHRDSTLDPSLMEMTEAALRLLSRNPRGFFLFVEGGRIDHGHHESRAYRALTETIMFDDAIERAGQLTSEEDTLSLVTADHSHVFSFGGYPLRGSSIFGLAPGKARDRKAYTVLLYGNGPGYVLKDGARPDVTESESGSPEYRQQSAVPLDEETHAGEDVAVFARGPQAHLVHGVQEQTFIAHVMAFAACLEPYTACDLAPPAGTTD

How the values were obtained:
Assay type in all cases: in vivo
C57/BL/6 mice [1] = assay: Glucose tolerance test with normal mice, CCcompound1 and sub-optimal insulin; details: CCcompound1 4.5-mg/kg i.p. 60 min and/or insulin 0.02 IU 15 min prior to glucose
Protocol: In this experiment, a sub-optimal dose of insulin (0.02 international unit-IU) was used to probe if CCcompound1 indeed can enhance the effect of insulin on blood glucose. Again C57/BL/6 female mice weighing 22-23-g and fasted for 14 hours prior to i.p. glucose administration (3-g/kg), were used. None of the animals received any food during the experiment other than glucose. The animals received i.p. injections of 4.5-mg/kg of CCcompound1 and/or 0.02 Unit insulin 60 min and 15 min prior to glucose administration, respectively. Blood samples were taken and glucose concentrations measured as indicated earlier. Each group included six animals. The data are the mean±std. dev. of 6 determinations, i.e. one determination with each of the six animals.

[2] = tested on: BDF1 (C57/BL/6 female×DBA/2 male) mice; assay: Glucose tolerance test with BDF1 mice, CCcompound1 and sub-optimal insulin; details: CCcompound1 4.5-mg/kg i.p. −15 min and/or insulin 0.02 IU −10 min
Protocol: In this experiment again, a sub-optimal dose of insulin was used to probe if CCcompound1 can enhance the effect of insulin on blood glucose. This time first generation hybrid BDF1 (C57/BL/6 female×DBA/2 male) adult (10-12 weeks old) male mice weighing 28-30-g and fasted for 14 hours before i.p. glucose administration (3-g/kg) were used. These mice were […] than mice in the previous experiment described under Example 5. None of the animals received any food during the experiment other than glucose. The animals received i.p. injections of 4.5-mg/kg of CCcompound1 and 0.02 IU of insulin 15 min and 10 min prior to glucose administration. Blood samples were taken and glucose concentrations in whole blood samples determined as described earlier. Each group included six animals. The data are the mean±std. dev. of 6 determinations, i.e. one determination with each of the six animals.

ob/ob mice [3] = assay: Blood glucose in ob/ob mice, CCcompound1 combined with human proteins AGP and TF
Protocol: For each experimental group, ob/ob mice were chosen (5 mice in each group) that were 43 days old and weighed on average 40.3±1.9-g on the first day of experiment. Three groups of mice were treated with s.c. injection of 4.5-mg/kg CCcompound1 once every day for 17 days. Mice in one of these CCcompound1-treated groups received no other treatment, and their blood was drawn for glucose analysis on day 14 and 17 exactly 45 min after treatment. The second CCcompound1-treated group also received 0.5-mg/mouse (˜11 mg/kg) dose of greater than 98% pure commercial human transferrin [catalogue number, T 3309 according to 2004/2005 Sigma catalogue]. In this second group the blood was drawn on day 14 just prior to TF administration and on day 17 two hours after TF and 45 min after CCcompound1 administration. An additional group of animals received only TF treatment. The third CCcompound1-treated group also received 1.2-mg/mouse (26.6-mg/kg) dose of >99% pure human AGP [catalogue number G 9885 according to 2004/2005 Sigma catalogue]; in this group the blood was drawn on day 14 just prior to AGP administration and on day 17 two hours and 45 minutes after administration of AGP and CCcompound1, respectively. An additional group of animals received only AGP treatment, and yet another group of animals received no treatment at all. On day 1, prior to any treatment, the blood glucose level of all animals was in the range of 7.2-7.9 mM.

C57/BL/6 mice [4] = assay: Glucose tolerance test with normal mice (CC1, CC3, CC19); details: for Reduction of blood glucose level: 30th min of test period
Protocol: C57/BL/6 female mice weighing 22-23-g and fasted for 14 hours before intraperitoneal (i.p.) administration of glucose (3-g/kg) were used. None of the animals received any food during the experiment other than glucose. The animals received i.p. injections of 4.5-mg/kg of CCcompound1, CCcompound3, or CCcompound19 either 1 hour or 24 hours prior to glucose administration as indicated in TABLE 3. Blood samples were taken from the eyes (canthus), and glucose concentrations in whole blood samples were immediately measured with the Fast Glucose C test. Each group included six animals. The data, shown in TABLE 3, are the mean±std. dev. of 6 determinations, i.e. one determination with each of the six animals. In this and all subsequent experiments the values at 0 min reflect glucose concentration in blood samples collected 1-5 minutes prior to the administration of glucose.

Wistar rats = assay: Glucose tolerance test in starved rats
Protocol: Male Wistar rats weighing 240-270-g were divided into 3 groups, each group consisting of 6 or 7 animals. To ensure standard conditions animals were starved for 14 hours before the start of the experiment. CCcompound1 and CCcompound3 were injected (i.p.) 30 min prior to injecting 3-g/kg of glucose (i.p.). Blood sugar values of the experimental animals were measured with the Fast Glucose C-test; blood samples were taken from the tail. The data are the mean±std. dev. of 6-7 determinations, i.e. one determination with each of the 6-7 animals in the respective groups.

ob/ob mice [5] = assay: Blood glucose level of normally fed ob/ob obese diabetic mice, daily treatment; details: second experiment
Text: Adult female leptin-deficient ob/ob obese diabetic inbred specified pathogen free (SPF) hygienic category mice from Charles River VRF1 were used for these experiments. The mice weighed 32-36-g at arrival. The ob/ob obese mouse is an extensively used animal model for the study of non-insulin-dependent-diabetes mellitus (NIDDM). The mutation was propagated in the C57BL/6J (BL/6) inbred strain. Homozygous obese (ob/ob) animals developed hyperglycemia due to insulin resistance, hyperinsulinemia (to compensate for reduced insulin action), and obesity. In these animals gluconeogenesis is enhanced despite their hyperinsulinemic state. The animals were kept in macrolon cages at 22-24° C. and 50-60% humidity, with lighting regimen of 12/12 h light dark. They had free access to tap water and were fed a sterilized standard diet (Charles River VRF1, autoclavable). The animals were cared for according to the “Guiding Principles for the Care and Use for Animals” based upon the Helsinki declaration. The ob/ob mice gained weight rapidly and developed a marked obesity by 5-6 weeks of age. […] When arrived they were 5 weeks old (when the experiment was performed with CCcompound1) or 4.5 weeks old (when the experiment was performed with CCcompound3 and CCcompound19). The treatments started 8 days later in the experiment performed with CCcompound1 and 10 days later in the experiment performed with CCcompound3 and CCcompound19. Experimental groups selected from ob/ob mice were injected subcutaneously (s.c.) at regular intervals once daily for 14 days with CCcompound1 or an analog (CCcompound3 or CCcompound19) each at the dose of 4.5-mg per kg. Control groups were also selected from ob/ob mice that remained untreated during the entire length of the experiment. In the first experiment, for which the data is presented in TABLE 11, blood samples were taken either 45 min or 6 hours after treatments with CCcompound1. In the second experiment, for which the data is presented in TABLE 12, blood samples were taken 45 min after treatments with the analogs of CCcompound1. Blood glucose was determined with the Fast Glucose C test. Both the untreated and CC compound-treated groups included 5 animals. The data are the mean±std. dev.

C57/BL/6 mice [6] = assay: Glucose tolerance test with normal mice, PALP and CCcompound1 combined; details: PALP 0.4 mg/mouse i.p. −24 h
Protocol: Female C57/BL/6 mice weighing 24-26-g and fasted for 12 hours before i.p. glucose administration (3 g/kg) were used. None of the animals received any food during the experiment other than glucose. One group of animals was untreated while animals in other groups received subcutaneous (s.c.) injections of 2.0 or 4.5-mg/kg of CCcompound1 either 30 min or 60 min prior to glucose administration as indicated in TABLE 5. Two groups of animals received i.p. injections of 0.4-mg per mouse (˜16-mg per kg) of highly purified PALP 24 hours prior to glucose administration. Purification of PALP was described in detail earlier [Z. Kiss, U.S. Pat. No. 7,048,914, “Placental Alkaline Phosphatase to Control Diabetes]. Animals in one of the PALP treated group also received s.c. injections of 4.5-mg/kg of CCcompound1 30 min prior to glucose administration as indicated in TABLE 5. Blood samples were taken and glucose concentrations were immediately measured as described earlier. Each group included five animals. The data are the mean±std. dev. of 5 determinations, i.e. one determination with each of the five animals. “-min” and “-h” indicates the length of period in minutes and hours, respectively, elapsed between the administration of test agents (first) and glucose (second).

[7] = 14th day, CC1 4.5-mg/kg s.c. daily, 45 min after treatment, blood drawn just prior to AGP or TF administration
[8] = 17th day, 45 min after CC1 4.5-mg/kg s.c., two hours after TF 0.5-mg/mouse or AGP 1.2-mg/mouse
[9] = 4.5-mg/kg i.p. 1 h prior to glucose 3-g/kg i.p., 0 min
[10] = 4.5-mg/kg i.p. 1 h prior to glucose
[11] = 4.5-mg/kg i.p. 1 h prior to glucose, 30 min
[12] = 4.5-mg/kg i.p. 1 h prior to glucose, 60 min
[13] = 4.5-mg/kg i.p. 1 h prior to glucose, 120 min
[14] = 4.5-mg/kg i.p. 1 h prior to glucose, 180 min
[15] = 4.5-mg/kg s.c. once daily, 45 min after treatment, day 1
[16] = 4.5-mg/kg s.c. once daily, day 0

| Molecule | Blood glucose level (ob/ob mice [3]; [7]) [mM] | Blood glucose level (ob/ob mice [3]; [8]) [mM] | Blood glucose (C57/BL/6 mice [4]; [9]) [mM] | Reduction of blood glucose level (C57/BL/6 mice [4]; [10]) [%] | Blood glucose (C57/BL/6 mice [4]; [11]) [mM] | Blood glucose (C57/BL/6 mice [4]; [12]) [mM] | Blood glucose (C57/BL/6 mice [4]; [13]) [mM] | Blood glucose (C57/BL/6 mice [4]; [14]) [mM] | Blood glucose (ob/ob mice [5]; [15]) [mM] | Blood glucose (ob/ob mice [5]; [16]) [mM] | Blood glucose (ob/ob mice [5]; 45 min after treatment, day 5) [mM] | Blood glucose (ob/ob mice [5]; 45 min after treatment, day 10) [mM] | Blood glucose (ob/ob mice [5]; 45 min after treatment, day 15) [mM] | also measured |
| --- | --- | --- | --- | --- | --- | --- | --- | --- | --- | --- | --- | --- | --- | --- |
| Insulin: insulin, sub-optimal dose 0.02 IU [reference compound] | – | – | – | – | – | – | – | – | – | – | – | – | – | Blood glucose (C57/BL/6 mice [1]; 0 min): 2.1 ± 0.6 mM; Blood glucose (C57/BL/6 mice [1]; 30 min): 7.2 ± 0.4 mM; Blood glucose (C57/BL/6 mice [1]; 60 min): 5.6 ± 0.5 mM; Blood glucose (C57/BL/6 mice [1]; 120 min): 3.8 ± 0.4 mM; Blood glucose ([2]; 0 min): 3.1 ± 0.4 mM; Blood glucose ([2]; 30 min): 6.4 ± 0.5 mM; Blood glucose ([2]; 60 min): 5.6 ± 0.3 mM |
| TF: greater than 98% pure commercial human transferrin, Sigma T 3309 | 15.8 ± 0.4 | 13.6 ± 0.7 | – | – | – | – | – | – | – | – | – | – | – | – |
| AGP: >99% pure human α1-acid glycoprotein, Sigma G 9885 | 16.0 ± 0.5 | 12.4 ± 0.6 | – | – | – | – | – | – | – | – | – | – | – | – |
| CC[N+](C)(CC)CCOCc1ccc2sc3ccccc3c(=O)c2c1 [CCcompound 3] | – | – | 1.7 ± 0.5 | 19 | 6.6 ± 0.3 | 5.0 ± 0.2 | 3.6 ± 0.5 | 2.7 ± 0.4 | 7.6 ± 0.7 | 9.1 ± 0.6 | 8.6 ± 0.9 | 11.0 ± 0.6 | 12.6 ± 0.5 | Blood glucose (Wistar rats; rats starved 14 h, i.p. 30 min prior to glucose 3-g/kg i.p., 0 min): 4.73 ± 0.24 mM; Blood glucose (Wistar rats; rats, i.p. 30 min prior to glucose, 30 min): 9.36 ± 0.43 mM; Blood glucose (Wistar rats; rats, i.p. 30 min prior to glucose, 60 min): 6.66 ± 0.33 mM; Blood glucose (Wistar rats; rats, i.p. 30 min prior to glucose, 90 min): 5.71 ± 0.38 mM; Blood glucose (Wistar rats; rats, i.p. 30 min prior to glucose, 120 min): 5.43 ± 0.60 mM |
| C[N+](C)(C)CCC=C1c2ccccc2Sc2ccccc21.[I-] [CCcompound 19, N,N,N-trimethyl-3-(9H-thioxanthen-9-ylidene)-propane-1-aminium iodide] | – | – | 2.1 ± 0.5 | 23 | 5.7 ± 0.4 | 4.6 ± 0.6 | 3.1 ± 0.2 | 2.2 ± 0.4 | 6.2 ± 0.9 | 9.3 ± 0.7 | 7.7 ± 0.5 | 9.3 ± 0.9 | 10.4 ± 1.0 | – |
| B1 | – | – | – | – | – | – | – | – | – | – | – | – | – | Blood glucose (C57/BL/6 mice [6]; 0 min): 3.7 ± 0.5 mM; Blood glucose (C57/BL/6 mice [6]; 30 min): 6.8 ± 0.3 mM; Blood glucose (C57/BL/6 mice [6]; 60 min): 5.3 ± 0.4 mM; Blood glucose (C57/BL/6 mice [6]; 120 min): 4.3 ± 0.5 mM |
